Experimental data reported in US4939175A, “Use of N,N-dimethyl-1-[1-(4-chlorophenyl)cyclobutyl]-3-methylbutylamine” (priority 1988, dated 1990).

Key:
[1] = test system: spontaneous movement of mice; assay: Spontaneous movement of mice; design: species or system SlC:ddy male mice; conditions: mouse, in vivo
Experimental: Effect of the test samples on the sponteneous movement of mice
The test sample was administered orally to SlC:ddy male mice. Immediately after, the amount of movement activity of the test mice was measured for 16 hours, at the time of 1, 2, 4, 8 and 16 hours respectively after the oral administration, by means of spontaneous movement measuring system (displacement measuring type).
Methamphetamine was used as the reference drug and distilled water was used as control sample.
The obtained results are shown in FIG. 1, columns and bars represent the mean±S.D. and statistical significance was evaluated by the multiple comparison test of Dunnet's type.

[2] = test system: memory and learning; assay: Effect on memory and learning in preclinical studies; format: in vivo
[3] = test system: dopamine neuron, norepinephrine and serotonin neuron; assay: Activation of dopamine, norepinephrine and serotonin neuron
[4] = Japanese Unexamined Patent Publication No. 181,043 (1982); cited from earlier work

CC(C)CC(N(C)C)C1(c2ccc(Cl)cc2)CCC1 (centres unmarked) [N,N-dimethyl-1-[1-(4-chlorophenyl)cyclobutyl]-3-methylbutylamine]
spontaneous movement [1]: increase of spontaneous movement
effect on memory and learning [2]: intensive effect on memory and learning
activation of dopamine neuron in addition to both norepinephrine and serotonin neuron [3]: intensive activation of dopamine neuron in addition to both norepinephrine and serotonin neuron
effect on dopamine activity [3]: enhancing effect of dopamine activity
therapeutical effect as an antidepressant [4]: has a therapeutical effect as an antidepressant
